Assay results as given in US9420769B2, “Chimeric non-human animal carrying human hepatocyte” (PHOENIXBIO CO., LTD., priority 2011, dated 2016).
Where a name gives a salt, the structure may show the parent alone.

Experiments:
[1] = MDZ metabolic activity in hepatic microsomes; format: in vitro ADME, mouse; settings: cyp3a (KO/KO)/uPA(+/+)/SCID(+/+) chimeric mice [N2F1] compared with PXB mice; MDZ 50 umol/L, 0.1 mg/mL microsomes, 37° C., 5 minutes; 1'- and 4-hydroxylated metabolites
Protocol: (§1) On weeks 10 to 11 after transplantation (14-week-old), each of chimeric mice and non-transplanted cyp3a (KO/KO)/uPA(+/+)/SCID(+/+) mice [N2F1] was dissected and thus the liver, the small intestine, and blood were collected. The collected liver and small intestine were cut into appropriate sizes. The resulting pieces were immersed in 1 mL of RNA Later (Life Technologies Corporation, Cat No. AM7020), stored at 4° C. overnight, and then stored at −80° C. In addition, portions of the liver and the small intestine were embedded in an OCT compound (Tissue-Tek) for the preparation of frozen sections, and then cryopreserved with liquid nitrogen. Microsomes were prepared from the remaining small intestine and liver portions by procedures such as centrifugation. The thus prepared microsomes were stored at −80° C.
(§2) MDZ metabolic activity was determined using microsomes from the liver and the small intestine from each mouse prepared in Example 2 above. In an experiment using hepatic microsomes, MDZ with a final concentration of 50 umol/L was incubated in hepatic microsomes with a final concentration of 0.1 mg/mL at 37° C. for 5 minutes. […] 1′- and 4-hydroxylated metabolites of MDZ were measured using LC-MS/MS.

[2] = MDZ metabolic activity in small intestinal microsomes; format: in vitro ADME, mouse; settings: MDZ 50 umol/L, 0.5 mg/mL microsomes, 37° C., 10 minutes
Protocol: as §1, §2

[3] = Metabolic studies for nefazodone hydrochloride (metabolite profiles in blood plasma and urine after peroral administration); format: in vivo, mouse
Protocol: Eight (8) mg of free/mL nefazodone hydrochloride suspended in 0.5% methylcellulose (resulting in a dose of […].) was forcibly administered perorally twice in a volume of 5 mL/kg b.w. at each instance to four (two male and two female mice) cyp3a (KO/KO)/uPA(+/+)/SCID(+/+) mice [N4F1] (week 8 after transplantation (11-week-old)) obtained in Example 8 above by transplantation of human hepatocytes.
Immediately after the first peroral administration of nefazodone hydrochloride, the animals were housed in metabolic cages. Urine was sampled at a time 0 to 8 hours after administration and at a time 8 to 24 hours after administration, at room temperature. After the sampling of urine, the 2nd peroral administration of nefazodone hydrochloride was performed. One (1) hour after administration, blood, small intestine, and liver samples were collected. Immediately after blood collection, centrifugation (1000×g, 4° C. for 10 minutes) was performed to prepare blood plasma. Immediately after collection, urine and blood plasma were stored at −80° C. The PXB mice and the SCID(+/+) mice were similarly treated, and thus blood plasma and urine samples were obtained.
Acetonitrile was added to the thus obtained blood plasma and urine, in an amount equivalent thereto, for deproteinization. Centrifugal filtration (Ultrafree-MC centrifugal filtration tube; 0.45 μm, 9500×g, 2 min, 4° C.) was then performed. The thus obtained filtrates were designated as analytical samples.

[4] = PXB mice, 10 mg free/kg peroral, 1 hour after 2nd administration
[5] = SCID(+/+) mice, 10 mg free/kg peroral, 1 hour after 2nd administration
[6] = cyp3a (KO/KO)/uPA(+/+)/SCID(+/+) chimeric mice [N4F1], 10 mg free/kg peroral, 1 hour after 2nd administration

SMILES | MDZ metabolic activity in hepatic microsomes [1] | MDZ metabolic activity in small intestinal microsomes ([2]; cyp3a (KO/KO)/uPA(+/+)/SCID(+/+) chimeric mice [N2F1] compared with PXB mice) | MDZ metabolic activity in small intestinal microsomes ([2]; cyp3a (KO/KO)/uPA(+/+)/SCID(+/+) chimeric mice [N2F1] compared with non-transplanted cyp3a (KO/KO)/uPA(+/+)/SCID(+/+) mice [N2F1]) | metabolites detected in blood plasma [3, 4] | unchanged nefazodone in blood plasma [3, 4] | metabolites detected in urine ([3]; PXB mice, 10 mg free/kg peroral, urine 0 to 24 hours after administration) | metabolites detected in blood plasma [3, 5] | unchanged nefazodone in blood plasma [3, 5] | metabolites detected in urine ([3]; SCID(+/+) mice, 10 mg free/kg peroral, urine 0 to 24 hours after administration) | human-type metabolites detected in blood plasma, in addition to Triazoledione metabolite [3, 6] | unchanged nefazodone in blood plasma [3, 6] | human-type metabolites detected in urine ([3]; cyp3a (KO/KO)/uPA(+/+)/SCID(+/+) chimeric mice [N4F1], 10 mg free/kg peroral, urine 0 to 24 hours after administration) | metabolic profiles ([3]; cyp3a (KO/KO)/uPA(+/+)/SCID(+/+) chimeric mice, unlike PXB mice and SCID(+/+) mice)
Cc1ncc2n1-c1ccc(Cl)cc1C(c1ccccc1F)=NC2 [MDZ, Midazolam] | almost the same | lower than that of the PXB mice | almost the same as that of the non-transplanted | – | – | – | – | – | – | – | – | – | –
CCc1nn(CCCN2CCN(c3cccc(Cl)c3)CC2)c(=O)n1CCOc1ccccc1 [nefazodone hydrochloride] | – | – | – | Triazoledione metabolite alone was detected | not detected | metabolite C alone was detected | Triazoledione metabolite alone was detected | not detected | metabolite C alone was detected | OH-NEF and p-OH-NEF | detected | mCPP and metabolite D | reflected the human drug-metabolizing system
